Results taken from publication PMC8920107 (ADMET & DMPK, 2020).
Several values for one entry are separate records, joined by “and”; a condition that tells them apart may be missing. Identical values can stand only once. Like-named read-outs stand apart in the source and are kept apart here.

Tests used:
AGP [1] = conditions: cited from earlier work
[2] = target: human serum albumin (HSA) (Homo sapiens, UniProt P02768); experiment: Albumin binding by biomimetic HPLC on Chiralpak HSA column; conditions: for calculated % binding, HSA 5 % IPA: isocratic 5 % IPA, partial calibration set; for calculated % binding, HSA 15 % IPA: isocratic 15 % IPA; for fraction unbound: human, Chiralpak HSA HPLC column (immobilised human serum albumin), pH 7.4; for % HSA bound: standard 6 min IPA gradient up to 35 %, pH 7.4, racemate; for log k (HSA): standard 6 min IPA gradient, racemate
Description: (§1) The protein binding measurements were carried out on Chiralpak HSA and Chiralpak AGP columns with the dimensions of 3 x 50 mm with 5 um particle size stationary phase (Chiril Technologies Europe, France). The mobile phase was 50 mM ammonium acetate adjusted to pH 7.4 with a flow rate of 1.2 mL/min. […] The cycle time was 6 min with an additional 1 min re-equilibration time.
(§2) The cycle time was 8 min plus an additional 1 min re-equilibration time.

AGP [3] = experiment: Literature AGP binding by equilibrium dialysis
HSA [4] = test system: HSA
[5] = calibration compounds, literature value, no reference given; cited from earlier work
[6] = test system: α-1-acid-glycoprotein (AGP); experiment: Glycoprotein binding by biomimetic HPLC on Chiralpak AGP column; conditions: for calculated % binding, AGP 5 % IPA: isocratic 5 % IPA; for calculated % binding, AGP 5 % IPA / calculated % binding, AGP 8 % IPA / calculated % binding, AGP 15 % IPA: 1.2 mL/min; for calculated % binding, AGP 8 % IPA: isocratic 8 % IPA; for calculated % binding, AGP 15 % IPA: isocratic 15 % IPA; for % AGP bound: standard 6 min IPA gradient up to 35 %, pH 7.4, racemate
Description: as §1, §2

[7] = design: method as in PMID 11472245; conditions: calibration set of compounds, predefined values; cited from earlier work
[8] = Estimated total plasma protein binding from biomimetic HPLC data (model equation); conditions: from % HSA, % AGP and lipophilicity, standard 6 min protocol; for fraction unbound: human, read-out: Estimated % plasma protein binding (PPB) (converted)
Source text: (§3) Thus, the regression coefficients in linear regression analysis are meaningful and reflect to the physiological proportion of the albumin and phospholipids in the body. […] They are based on the calibrated retention times obtained on C-18, IAM, Chiralpak HSA and Chiralpak AGP columns.

[9] = Estimated brain tissue binding and brain to blood ratio from biomimetic HPLC data (model equations); conditions: standard 6 min protocol data; for %BTB: brain tissue binding; for Kp at 0.1 h: read-out: Brain to plasma
Source text: as §3

[10] = both in animals and in human; cited from earlier work
[11] = cited from earlier work
[12] = Estimated lung tissue binding from biomimetic HPLC data (model equation); conditions: standard 6 min protocol data
Source text: as §3

[13] = cited from earlier work; remark: listed apart in the source
[14] = Phospholipid binding at pH 7.4 on Immobilized Artificial Membrane (IAM) HPLC column; type: physicochemical; conditions: pH 7.4, standard 6 min protocol
Description: The phospholipid-binding was measured using an IAM PC.DD2 column with dimensions of 100 x 4.6 mm (Regis Technologies Inc., Morton Grove, IL, USA). The gradient retention times of the compounds were measured using a 50 mM ammonium acetate starting mobile phase with the pH adjusted to 7.4. The mobile phase flow rate was 1.5 mL/min. […] The cycle time was 6 min plus an additional 1 min equilibration time was applied while the injector prepared for the next injection. The gradient retention times were calibrated with the acetophenone homologues for which the CHI IAM values have been established using isocratic measurements [26]. The Chromatographic Hydrophobicity Index on the IAM column [CHI(IAM)] approximates to the acetonitrile concentration in the mobile phase when the compound elutes. CHI(IAM) values above 45 indicate strong phospholipid binding. Repeating the retention time measurements provided the error only in the third digit of the minute (±0.005).

[15] = Estimated volume of distribution, unbound volume of distribution and drug efficiency from biomimetic HPLC data; conditions: standard 6 min protocol data
Source text: as §3

[16] = Human plasma protein binding by rapid equilibrium dialysis (RED); type: in vitro ADME; conditions: 100 % pooled human plasma, pH 7.4, 37 °C
Description: The test compounds were prepared in 100 % pooled human plasma. The measurement was performed using equilibrium dialysis with the two compartments separated by a semi-permeable membrane. The plasma solution was added to one side of the membrane while buffer (pH 7.4) was added to the other side. The system was allowed to reach equilibrium at 37 °C. Compound concentration on both sides of the membrane was measured by LC-MS/MS, and the fraction of unbound compound calculated. Calibration standards were prepared in plasma and buffer. Test compound incubations were performed in triplicate. A control compound was included in each experiment. The solutions for each batch of compounds were combined into two groups (protein-free and protein-containing). Cassette analysed by LC-MS/MS using two sets of calibration standards for protein-free solutions (7 points) and protein-containing solutions (7 points). The experiments were carried out at Cyprotex Discovery Ltd (UK) and repeated at Sygnature Discovery Ltd (UK) laboratories using their generic LC/MS method. The unbound fraction (fu) is calculated from the concentration of the test compound in the protein-containing side Cp and the protein-free side Cf based on the formula: […]

[17] = Estimated cell partition coefficient from IAM binding (model equation); conditions: standard 6 min protocol data
Source text: as §3

[18] = Phospholipidotic potential (CAD-likeness) from CHI values; conditions: CHI (IAM) + (CHI at pH 10.5 – CHI at pH 7.4)
[19] = Chromatographic Hydrophobicity Index (CHI) lipophilicity at three pHs, C-18 gradient HPLC; type: physicochemical
Description: Gemini NX C-18(2) 5 um columns with dimensions of 3 x 50 mm (Phenomenex Ltd. Macclesfield, UK) were used for the determination of the Chromatographic Hydrophobicity Index (CHI) and the CHIlogD values. […] An acetonitrile linear gradient was used from 0 to 100 %. The acetonitrile concentration reached 100 % in 3.5 min. The 100 % acetonitrile mobile phase was maintained for an additional 1 min before it was returned to 0 % at 4.7 min. The cycle time of the gradient run was 6 min, with an additional equilibration time of 1 min before the next injection. The error in the retention time measurements is ±0.005 min in general after repeated injections.

HSA [20] = conditions: cited from earlier work; for % HSA: calibration drugs, equilibrium dialysis literature % binding
[21] = calibration drugs, equilibrium dialysis literature % binding

human serum albumin (HSA), sequence (P02768 25-609): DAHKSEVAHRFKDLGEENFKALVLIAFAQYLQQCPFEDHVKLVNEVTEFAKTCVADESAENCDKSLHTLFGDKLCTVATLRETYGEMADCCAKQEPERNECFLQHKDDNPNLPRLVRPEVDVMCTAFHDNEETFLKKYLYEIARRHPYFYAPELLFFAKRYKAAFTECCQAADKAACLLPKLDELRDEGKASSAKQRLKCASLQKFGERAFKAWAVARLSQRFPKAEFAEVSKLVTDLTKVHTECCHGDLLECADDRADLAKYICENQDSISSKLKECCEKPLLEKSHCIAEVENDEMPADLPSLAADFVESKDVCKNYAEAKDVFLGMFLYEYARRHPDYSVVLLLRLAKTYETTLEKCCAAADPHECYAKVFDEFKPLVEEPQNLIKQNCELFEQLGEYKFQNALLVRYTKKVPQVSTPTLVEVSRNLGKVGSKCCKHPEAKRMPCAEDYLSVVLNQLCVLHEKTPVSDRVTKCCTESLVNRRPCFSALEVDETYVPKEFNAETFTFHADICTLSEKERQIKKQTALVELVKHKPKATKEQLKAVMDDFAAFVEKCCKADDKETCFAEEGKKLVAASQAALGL

COC(=O)C1=C(C)NC(C)=C(C(=O)OCCN(C)Cc2ccccc2)C1c1cccc([N+](=O)[O-])c1 (stereo not drawn) [Nicardipine]
% AGP (AGP [1]; [21]): 87% | calculated % binding, HSA 5 % IPA ([2]; 1.2 mL/min): 6 (96 %) | calculated % binding, HSA 15 % IPA ([2]; 1.2 mL/min): 1.05 (95 %) | log k (AGP) (AGP [3]): 0.8 | log k (HSA) (HSA [4]): 1.2 | % PPB (binds to plasma proteins) [5]: nicardipine (96 % PPB) | calculated % binding, AGP 5 % IPA [6]: >8 min (>98 %) | calculated % binding, AGP 8 % IPA [6]: 5.63 (98 %) | calculated % binding, AGP 15 % IPA [6]: 5.0 (96 %)

c1ccc2[nH]ccc2c1 [Indole]
CHI at pH 2.6 [7]: 72.1 | CHI at pH 7.4 [7]: 71.5 | CHI at pH 10.5 [7]: 72.1

CCN(CC)CCCC(C)Nc1ccnc2cc(Cl)ccc12 (stereo not drawn) [CQ, Chloroquine]
% AGP bound (AGP [1]): 48.4% | Estimated % plasma protein binding (PPB) [8]: 94.8% | fraction unbound [8]: 0.05 | %BTB [9]: 98.4% | Kp at 0.1 h [9]: 3.4 | fraction unbound [2]: 0.178 | % HSA bound [2]: 87% and 87.6% | log k (HSA) [2]: 0.8 | phospholipidosis [10]: causes phospholipidosis | Measured log I (ChemSpider) [11]: 2.68-4.63 | % LTB [12]: 96.3% | volume of distribution described in the literature [13]: over 100 L/kg | % AGP bound [6]: 88.8% | log k (IAM) [14]: 2.6 | Vd [15]: 6.9 L/kg | Vdu [15]: 56.1 L/kg | fraction unbound [16]: 0.474

CC(=O)c1ccccc1 [Acetophenone]
CHI at pH 2.6 [7]: 64.1 | CHI at pH 7.4 [7]: 65.1 | CHI at pH 10.5 [7]: 64.1

Cn1c(=O)c2[nH]cnc2n(C)c1=O [Theophylline]
CHI at pH 2.6 [7]: 17.9 | CHI at pH 7.4 [7]: 18.4 | CHI at pH 10.5 [7]: 5.0

COc1ccc2c(c1)c(CC(=O)O)c(C)n2C(=O)c1ccc(Cl)cc1 [Indomethacin]
% AGP (AGP [1]; [21]): 56% | log k (AGP) (AGP [3]): 0.1 | log k (HSA) (HSA [4]): 1.8

c1ccc2[nH]cnc2c1 [Benzimidazole]
CHI at pH 2.6 [7]: 6.3 | CHI at pH 7.4 [7]: 34.3 | CHI at pH 10.5 [7]: 30.6

CCN(CCO)CCCC(C)Nc1ccnc2cc(Cl)ccc12 (stereo not drawn) [HCQ, hydroxy-chloroquine]
% AGP bound (AGP [1]; equilibrium dialysis method): 34% | Kpcell [17]: 7.3 | Estimated % plasma protein binding (PPB) [8]: 93.4% | fraction unbound [8]: 0.07 | %BTB [9]: 97.6% | est log k BB [9]: 0.8 | Kp at 0.1 h [9]: 2.8 | fraction unbound [2]: 0.181 | % HSA bound [2]: 84.9% | log k (HSA) [2]: 0.7 | Phospholipidotic potential (CAD-likeness) [18]: 73.6 | % LTB [12]: 93.9% | volume of distribution described in the literature [13]: over 100 L/kg | Vd ([13]; healthy volunteers): above 4000 L/kg | chromatographic logD ([19]; Gemini NX C-18(2) HPLC column, pH 7.4, C-18 gradient HPLC, racemate not resolved, read-out: CHI log D (pH 7.4)): 0.66 | chromatographic logP ([19]; from pH 10.5 mobile phase, read-out: CHI log P): 2.13 | % AGP bound [6]: 89.0% | log k (AGP) ([6]; standard 6 min IPA gradient, racemate): 0.9 | log k (IAM) [14]: 2.5 | Vd ([15]; human): 5.8 L/kg | Vd [15]: 5.1 L/kg | Vdu [15]: 38.8 L/kg | fraction unbound [16]: 0.693 | % HSA bound (HSA [20]; equilibrium dialysis method): 40%

CCCC(=O)c1ccccc1 [Butyrophenone]
CHI at pH 2.6 [7]: 87.3 | CHI at pH 7.4 [7]: 87.5 | CHI at pH 10.5 [7]: 87.3

COc1cc(Cc2cnc(N)nc2N)cc(OC)c1OC [Trimethoprim]
% AGP (AGP [1]; [21]): 46.2% | log k (AGP) (AGP [3]): -0.1 | log k (HSA) (HSA [4]): -0.2 | % HSA (HSA [20]): 37.6%

CCCCC(=O)c1ccccc1 [Valerophenone]
CHI at pH 2.6 [7]: 96.4 | CHI at pH 7.4 [7]: 96.20 | CHI at pH 10.5 [7]: 96.36

CC(=O)Nc1ccc(O)cc1 [Paracetamol]
% AGP (AGP [1]; [21]): 3.2% | log k (AGP) (AGP [3]): -1.5 | log k (HSA) (HSA [4]): -0.8 | % HSA (HSA [20]): 14.0%

CNC(=C[N+](=O)[O-])NCCSCc1csc(CN(C)C)n1 [Nizatidine]
% AGP (AGP [1]; [21]): 37.1% | log k (AGP) (AGP [3]): -0.2 | log k (HSA) (HSA [4]): -0.6 | % HSA (HSA [20]): 20.4%

NC(=O)N1c2ccccc2C=Cc2ccccc21 [Carbamazepine]
% AGP (AGP [1]; [21]): 65% | log k (AGP) (AGP [3]): 0.3 | log k (HSA) (HSA [4]): 0.5 | % HSA (HSA [20]): 75.0%

O=C(O)Cc1ccccc1Nc1c(Cl)cccc1Cl [Diclofenac]
log k (AGP) (AGP [3]): 0.2

Cn1c(=O)c2nc(-c3ccccc3)[nH]c2n(C)c1=O [Phenyl theophylline]
CHI at pH 2.6 [7]: 51.7 | CHI at pH 7.4 [7]: 51.2 | CHI at pH 10.5 [7]: 51.3

CC(=O)CC(c1ccccc1)c1c(O)c2ccccc2oc1=O (stereo not drawn) [Warfarin]
% AGP (AGP [1]): 83.2% | log k (AGP) (AGP [3]): 0.7 | log k (HSA) (HSA [4]): 1.5

COc1cc2c(c(OC)c1OC)-c1ccc(OC)c(=O)cc1[C@@H](NC(C)=O)CC2 [Colchicine]
CHI at pH 2.6 [7]: 43.9 | CHI at pH 7.4 [7]: 45.0 | CHI at pH 10.5 [7]: 43.9

c1ccc(-c2nn[nH]n2)cc1 [Phenyl tetrazole]
CHI at pH 2.6 [7]: 42.2 | CHI at pH 7.4 [7]: 23.6 | CHI at pH 10.5 [7]: 16.0

CCC(=O)c1ccccc1 [Propiophenone]
CHI at pH 2.6 [7]: 77.4 | CHI at pH 7.4 [7]: 77.4 | CHI at pH 10.5 [7]: 77.4

CC(C)NCC(O)COc1cccc2ccccc12 (stereo not drawn) [Propranolol]
% AGP (AGP [1]; [21]): 86% | calculated % binding, HSA 5 % IPA ([2]; 1.2 mL/min): 0.76 (54 %) | calculated % binding, HSA 8 % IPA ([2]; isocratic 8 % IPA, 1.2 mL/min): 0.73 (57.6 %) | calculated % binding, HSA 15 % IPA ([2]; 1.2 mL/min): 0.58 (66 %) | log k (AGP) (AGP [3]): 0.8 | log k (HSA) (HSA [4]): 0.3 | % PPB (binds to plasma proteins) [5]: propranolol (66 % PPB) | calculated % binding, AGP 5 % IPA [6]: 2.78 (85 %) | calculated % binding, AGP 8 % IPA [6]: 1.73 (68 %) | calculated % binding, AGP 15 % IPA [6]: 1.58 (67 %) | % HSA (HSA [20]): 66.6%
